Measured values: article PMC11954145, “Antimicrobial and ADME properties of methoxylated, methylated and nitrated 2-hydroxynaphthalene-1 carboxanilides” (ADMET & DMPK, 2025)
In brackets after ≈: the same amount, converted by molar mass. Like-named read-outs stand apart in the source and are kept apart here.

Columns and labels:
[1] = Lipophilicity determination by RP-HPLC (log k, log D); format: physicochemical; conditions: for log D6.5: RP-HPLC C18, MeOH 72 % / acetate-buffered saline pH 6.5; for log D7.4: RP-HPLC C18, MeOH 72 % / acetate-buffered saline pH 7.4; for log k (logarithm of the capacity factor): RP-HPLC C18, MeOH 72 % / water 28 %
Excerpt: An HPLC system Agilent 1200 equipped with a DAD detector (Agilent, Santa Clara, CA, USA) was used. A chromatographic column Symmetry® C18 5 μm, 4.6×250 mm, part No. WAT054275 (Waters Corp., Milford, MA, USA) was used. The HPLC separation process was monitored and evaluated with EZChrom Elite software ver. 3.3.2 (Agilent). Isocratic elution by a mixture of MeOH p.a. (72 %) and H2O-HPLC Mili-Q grade (28 %) as a mobile phase was used for the determination of capacity factor k. Isocratic elution by a mixture of MeOH p.a. (72 %) and acetate-buffered saline (pH 7.4 and pH 6.5) (28 %) as a mobile phase was used for the determination of distribution coefficients expressed as D7.4 and D6.5. The total flow of the column was 1.0 mL min^-1, the injection volume was 20 μL, the column temperature was 40 °C, and the sample temperature was 10 °C. The detection wavelength of 210 nm was chosen. A KI methanolic solution was used to determine the dead times (tD). Retention times (tR) were measured in minutes. The capacity factors k were calculated according to the formula k = (tR–tD)/tD, where tR is the retention time of the solute, and tD is the dead time obtained using an unretained analyte. The distribution coefficients DpH were calculated according to the formula DpH = (tR–tD)/tD. Each experiment was repeated three times.
The capacity factor and distribution coefficients were measured by RP-HPLC on a C18 column with methanol as an organic modifier of the mobile phase. In addition to the experimental lipophilicities, predicted log P values were also calculated using ACD/Percepta, see Table 1. […] The values of σ(Ar) are found in a wide range from 0.01 to 1.36, so the compounds contain substituents with both electron-donating and slightly electron-withdrawing properties.

MRSA SA 3202 = assay: Antibacterial screening, broth microdilution MIC; format: cell-based, methicillin-resistant S. aureus; conditions: Staphylococcus aureus, clinical isolate, 24 h at 37 °C, read-out: MIC MRSA SA 3202
in vitro = conditions: human
Method: Cytotoxicity of the compounds was determined using an LDH assay kit (Roche Diagnostics, Mannheim, Germany) as described previously. Human monocytic leukemia THP-1 cells (European Collection of Cell Cultures, Salisbury, UK) were exposed for 24 h at 37 °C to various compound concentrations ranging from 0.37 to 30 μM in RPMI 1640 medium. For LDH assays, cells were seeded into 96-well plates (5×10^4 cells/well in 100 μL culture medium) in triplicate in serum-free RPMI 1640 medium and measurements were taken 24 h after the treatment with the compounds. The maximum concentration of DMSO (Sigma) in the assays never exceeded 0.1 %. […] The median lethal dose values, LC50, were deduced through the production of a dose-response curve. All data from three independent experiments were evaluated using GraphPad Prism 5.00 software (GraphPadSoftware, San Diego, CA, USA).

[2] = test system: Mycobacterium smegmatis ATCC 700084; assay: Antimycobacterial screening, broth dilution MIC; format: cell-based; conditions: Mycolicibacterium smegmatis, ATCC700084, 72 h, read-out: MIC M. smegmatis
[3] = test system: Mycobacterium tuberculosis ATCC 25177/H37Ra; assay: Antimycobacterial screening, broth dilution MIC (Alamar blue); format: cell-based; conditions: 336 h, H37Ra, 14 days at 37 °C, Alamar blue, read-out: MIC M. tuberculosis
Method: The evaluation of in vitro antimycobacterial activity of the compounds was performed against Mycobacterium tuberculosis ATCC 25177/H37Ra, Mycobacterium kansasii DSM 44162 and Mycobacterium smegmatis ATCC 700084.
The broth dilution micro-method in Middlebrook 7H9 medium (Difco, Lawrence, KS, USA) supplemented with ADC Enrichment (Difco) was used to determine the minimum inhibitory concentration (MIC) as previously described. […] The final concentrations of the evaluated compounds, ranging from 256 to 0.125 μg mL^-1, were obtained by twofold serial dilution of the stock solution in a microtiter plate with a sterile medium. Bacterial inocula were prepared by transferring colonies from culture to sterile water. The plate was inoculated by tested microorganisms. The final concentration of bacterial cells was 1.5×10^6 for M. tuberculosis and 10^5 cells in a microtiter plate for other mycobacteria. Isoniazid and rifampicin (Sigma) were used as reference antimycobacterial drugs. Drug-free controls, sterility controls, and controls consisting of medium and DMSO alone were included. The plates were incubated for a defined time at an appropriate temperature (3 days at 37 °C for M. smegmatis, and 14 days at 37 °C for M. tuberculosis and M. kansasii). […] The MICs against M. tuberculosis were evaluated by Alamar blue (Oxoid). After incubation, 10 % of Alamar blue was added to each well, and the plate was incubated for 24 h. The MIC values were assessed as the lowest concentration of the tested compounds, which prevented changing blue resazurin to pink resorufin. The experiments were repeated three times. The minimum inhibitory concentrations (MICs) were defined as the lowest concentration of the compound at which no visible bacterial growth was observed. The MIC value is routinely and widely used in bacterial assays and is a standard detection limit according to the CLSI [60].

VRE 368 = assay: Antibacterial screening, broth microdilution MIC; format: cell-based, vancomycin-resistant E. faecalis; conditions: Enterococcus, read-out: MIC VRE 368
E. coli ATCC 25922 = assay: Antibacterial screening, broth microdilution MIC; format: cell-based; conditions: Escherichia coli, ATCC25922; ATCC 25922, 24 h at 37 °C
[4] = test system: Mycobacterium kansasii DSM 44162; assay: Antimycobacterial screening, broth dilution MIC; format: cell-based; conditions: DSM44162, 336 h, read-out: MIC M. kansasii
[5] = test system: Enterococcus faecalis ATCC 29212; assay: Antibacterial screening, broth microdilution MIC; format: cell-based; conditions: read-out: MIC E. faecalis
MRSA SA 630 = assay: Antibacterial screening, broth microdilution MIC; format: cell-based, methicillin-resistant S. aureus; conditions: Staphylococcus aureus, read-out: MIC MRSA SA 630
VRE 342B = assay: Antibacterial screening, broth microdilution MIC; format: cell-based, vancomycin-resistant E. faecalis; conditions: Enterococcus, vanA isolate, 24 h at 37 °C, read-out: MIC VRE 342B
S. aureus ATCC 29213 = assay: Antibacterial screening, broth microdilution MIC; format: cell-based; conditions: Staphylococcus aureus, ATCC29213; ATCC 29213, 24 h at 37 °C; read-out: MIC S. aureus
MRSA 63718 = assay: Antibacterial screening, broth microdilution MIC; format: cell-based, methicillin-resistant S. aureus; conditions: Staphylococcus aureus, read-out: MIC MRSA 63718
VRE 725B = assay: Antibacterial screening, broth microdilution MIC; format: cell-based, vancomycin-resistant E. faecalis; conditions: Enterococcus, vanA isolate, 24 h at 37 °C, read-out: MIC VRE 725B
[6] = ATCC29212, ATCC 29212, 24 h at 37 °C
[7] = clinical isolate, 24 h at 37 °C

| SMILES | log D6.5 [1] | log D7.4 [1] | MIC (MRSA SA 3202) [µM] | CC50 at 24 h (in vitro) [µM] | MIC ([2]; ATCC 700084, 3 days at 37 °C) [µM] | MIC [3] [µM] | MIC (VRE 368; vanA isolate, 24 h at 37 °C) [µM] | MIC (E. coli ATCC 25922) [µM] | MIC ([4]; DSM 44162, 14 days at 37 °C) [µM] | MIC [5, 6] [µM] | MIC (MRSA SA 630; [7]) [µM] | MIC (VRE 342B) [µM] | MIC (S. aureus ATCC 29213) [µM] | MIC (MRSA 63718; [7]) [µM] | MIC (VRE 725B) [µM] | log k (logarithm of the capacity factor) [1] | also measured |
| --- | --- | --- | --- | --- | --- | --- | --- | --- | --- | --- | --- | --- | --- | --- | --- | --- | --- |
| O=C(Nc1ccc([N+](=O)[O-])c(C(F)(F)F)c1)c1c(O)ccc2ccccc12 [Compound 27, 2-Hydroxy-N-[4-nitro-3-(trifluoromethyl)phenyl]naphthalene-1-carboxamide] | 0.3282 | 0.3220 | 1.33 (≈ 0.5 µg/mL) | > 30 | 21.3 (≈ 8.01 µg/mL) | 85 (≈ 32 µg/mL) | 21.3 (≈ 8.01 µg/mL) | 680 (≈ 256 µg/mL) | 21.3 (≈ 8.01 µg/mL) | 21.3 (≈ 8.01 µg/mL) | 1.33 (≈ 0.5 µg/mL) | 42.5 (≈ 16 µg/mL) | 0.332 (≈ 0.125 µg/mL) | 1.33 (≈ 0.5 µg/mL) | 42.5 (≈ 16 µg/mL) | – | – |
| Cc1ccc(C(F)(F)F)cc1NC(=O)c1c(O)ccc2ccccc12 [Compound 22, 2-Hydroxy-N-[2-methyl-5-(trifluoromethyl)phenyl]naphthalene-1-carboxamide] | 0.3444 | 0.3440 | 2.9 (≈ 1 µg/mL) | > 30 | 23.2 (≈ 8.01 µg/mL) | 46.3 (≈ 16 µg/mL) | – | 23.2 (≈ 8.01 µg/mL) | – | – | 2.9 (≈ 1 µg/mL) | 92.6 (≈ 32 µg/mL) | 2.9 (≈ 1 µg/mL) | 5.79 (≈ 2 µg/mL) | 92.6 (≈ 32 µg/mL) | – | MIC (VRE 368; 24 h): 46.3 µM (≈ 16 µg/mL); MIC [4]: 46.3 µM (≈ 16 µg/mL); MIC ([5]; ATCC29212, 24 h): 46.3 µM (≈ 16 µg/mL) |
| COc1cc(NC(=O)c2c(O)ccc3ccccc23)cc(OC)c1 [Compound 6, N-(3,5-Dimethoxyphenyl)-2-hydroxynaphthalene-1-carboxamide] | 0.0411 | 0.0490 | 198 (≈ 64 µg/mL) | > 30 | – | 396 (≈ 128 µg/mL) | 792 (≈ 256 µg/mL) | 792 (≈ 256 µg/mL) | 98.9 (≈ 32 µg/mL) | 792 (≈ 256 µg/mL) | – | 792 (≈ 256 µg/mL) | 198 (≈ 64 µg/mL) | – | 792 (≈ 256 µg/mL) | 0.0388 | MIC [2]: 396 µM (≈ 128 µg/mL); MIC (MRSA SA 630; 24 h): 396 µM (≈ 128 µg/mL); MIC (MRSA 63718; 24 h): 396 µM (≈ 128 µg/mL) |
| Cc1cc(C)cc(NC(=O)c2c(O)ccc3ccccc23)c1 [Compound 13, N-(3,5-Dimethylphenyl)-2-hydroxynaphthalene-1-carboxamide] | 0.3429 | 0.3480 | 54.9 (≈ 16 µg/mL) | > 30 | 220 (≈ 64.1 µg/mL) | 439 (≈ 128 µg/mL) | 879 (≈ 256 µg/mL) | 879 (≈ 256 µg/mL) | 110 (≈ 32 µg/mL) | 879 (≈ 256 µg/mL) | 54.9 (≈ 16 µg/mL) | 879 (≈ 256 µg/mL) | 54.9 (≈ 16 µg/mL) | 54.9 (≈ 16 µg/mL) | 879 (≈ 256 µg/mL) | 0.3367 | – |
